Holding throughout (type): functional, cell-based
The test system of one assay is MOLT-4. Kind of assay: Cytostatic activity against Homo sapiens (human) Molt4/C8 cells after 72 hr. As to conditions: MOLT-4, 72 h.
A further assay has as its system CCRF-CEM. The assay can be described thus: Cytostatic activity against Homo sapiens (human) CEM cells after 72 hr.
The test system of another assay is L1210. Kind of assay: Cytostatic activity against Mus musculus (mouse) L1210 cells after 48 hr. As to conditions: L1210, 48 h.

A word on the IC50: it is the midpoint of a concentration-inhibition curve. A high value points to a need for much substance. Consider `O=C1/C(=N\NC(=S)Nc2ccc(Cl)cc2)c2cc(Cl)ccc2N1Cc1ccc(F)cc1`, for which the half-inhibitory concentration (IC50) in the assay with MOLT-4 was determined as 48 µM; in the assay on CCRF-CEM, 50 µM; in the assay on L1210, 103 µM.

On to `O=C1/C(=N\NC(=S)Nc2ccc(Cl)cc2)c2cc(Br)ccc2N1Cc1ccc(F)cc1`, for which the IC50 was found to be 48 µM in the assay with MOLT-4, 61 µM in the assay with CCRF-CEM and 196 µM with L1210.

For `Cc1ccc(NC(=S)N/N=C2\C(=O)N(Cc3ccc(F)cc3)c3ccc(Br)cc32)cc1`, the concentration for half-maximal inhibition (IC50) in the assay with MOLT-4 came to 57 µM; in the assay with CCRF-CEM, 132 µM; with L1210 it was 190 µM.

Regarding `Cc1ccc(CN2C(=O)/C(=N\NC(=S)Nc3ccc(Cl)cc3)c3cc(Br)ccc32)cc1`, the IC50 came out at 74 µM with MOLT-4, 98 µM with CCRF-CEM and 193 µM with L1210.

Regarding `Cc1ccc(NC(=S)N/N=C2\C(=O)N(Cc3ccc(Cl)cc3)c3ccc(Br)cc32)cc1`, the half-inhibitory concentration (IC50) was 288 µM with MOLT-4, at least 500 µM in the assay with CCRF-CEM and at least 500 µM in the assay on L1210.

`Cc1ccc(CN2C(=O)/C(=N\NC(=S)Nc3ccc(C)cc3)c3cc(Br)ccc32)cc1`: the IC50 in the assay with MOLT-4 is 393 µM; in the assay on CCRF-CEM, at least 500 µM; in the assay with L1210 it was at least 500 µM.

On to `O=C1/C(=N\NC(=S)Nc2ccc(Cl)cc2)c2cc(Br)ccc2N1Cc1ccc(Cl)cc1`, for which the concentration for half-maximal inhibition (IC50) in the assay on MOLT-4 is 280 µM; with CCRF-CEM it was 392 µM; in the assay with L1210, at least 500 µM.

In the case of `O=C1Nc2ccc(Cl)cc2/C1=N/NC(=S)Nc1ccc(Cl)cc1`, the 50% inhibitory concentration (IC50) came out at 64 µM in the assay with MOLT-4, 61 µM with CCRF-CEM and 108 µM in the assay with L1210.

As to `O=C1Nc2ccc(Br)cc2/C1=N/NC(=S)Nc1ccc(Cl)cc1`, the IC50 in the assay with MOLT-4 was determined as 29 µM; with CCRF-CEM it was 61 µM; in the assay with L1210, 88 µM.

As for `Cc1ccc(NC(=S)N/N=C2\C(=O)Nc3ccc(Br)cc32)cc1`, the half-maximal inhibitory concentration (IC50) in the assay with MOLT-4 was 4.9 µM; in the assay with CCRF-CEM, 6.8 µM; with L1210, 9.6 µM.

On to `O=C1Nc2cc(Cl)c(F)cc2/C1=N/NC(=S)Nc1ccc(Cl)cc1`, for which the 50% inhibitory concentration (IC50) with MOLT-4 turned out to be 43 µM; with CCRF-CEM, 48 µM; in the assay on L1210 it was 69 µM.

On to `Cc1ccc(NC(=S)N/N=C2\C(=O)Nc3cc(Cl)c(F)cc32)cc1`, for which the values for the IC50 in the assay on MOLT-4, in the assay on CCRF-CEM and in the assay on L1210 were 112 µM, 132 µM and 166 µM, respectively.

In the case of `O=C1/C(=N\NC(=S)Nc2ccc(Cl)cc2)c2cc(F)ccc2N1Cc1ccc(F)cc1`, the IC50 in the assay with MOLT-4 was found to be 47 µM; in the assay on CCRF-CEM, 56 µM; in the assay with L1210, 154 µM.

On to `Cc1ccc(NC(=S)N/N=C2\C(=O)N(Cc3ccc(F)cc3)c3ccc(F)cc32)cc1`, for which the values for the 50% inhibitory concentration (IC50) in the assay on MOLT-4, in the assay on CCRF-CEM and in the assay with L1210 were 1.5 µM, 2.5 µM and 6.2 µM, respectively.

`Cc1ccc(CN2C(=O)/C(=N\NC(=S)Nc3ccc(Cl)cc3)c3cc(Cl)ccc32)cc1`: the half-inhibitory concentration (IC50) in the assay on MOLT-4 turned out to be 5.8 µM; with CCRF-CEM it was 18 µM; in the assay on L1210, 9.8 µM.

With `O=C1/C(=N\NC(=S)Nc2ccc(Cl)cc2)c2cc(Cl)ccc2N1Cc1ccc(Cl)cc1`, the results for the half-maximal inhibitory concentration (IC50) in the assay with MOLT-4, with CCRF-CEM and in the assay with L1210 were 58 µM, 68 µM and 124 µM, respectively.

On to `O=C1Nc2ccc(F)cc2/C1=N/NC(=S)Nc1ccc(Cl)cc1`, for which the results for the IC50 in the assay with MOLT-4, in the assay with CCRF-CEM and with L1210 were 14 µM, 25 µM and 34 µM, respectively.

Take `Cc1ccc(NC(=S)N/N=C2\C(=O)Nc3ccc(F)cc32)cc1`: the half-maximal inhibitory concentration (IC50) in the assay with MOLT-4 is 3 µM; in the assay on CCRF-CEM, 4.8 µM; with L1210, 8.2 µM.

As to `N[C@@H](Cc1ccc(N(CCCl)CCCl)cc1)C(=O)O` [MELPHALAN], half-maximal inhibition with MOLT-4 (IC50) was put at 3.2 µM.
